According to publication PMC8686256, “DZNep promotes mouse bone defect healing via enhancing both osteogenesis and osteoclastogenesis” (Stem Cell Research & Therapy, 2021):

How the values were obtained:
Assay type in all cases: cell-based, mouse
[1] = system: primary BMMs; experiment: CCK-8 cytotoxicity assay on BMMs
Procedure: Primary BMMs were obtained from whole bone marrow of male 6-week-old C57BL/6 mice. In brief, cells were extracted from the tibiae and femurs bone marrow and suspended in complete α-MEM (α-MEM supplemented with 30 ng/ml M-CSF, 10% FBS, and 1% penicillin/streptomycin). Then, the cell cultures were kept in a humid environment at 37 °C with 5% CO2 until they reached 90% confluence. The cytotoxic effects of DZNep on BMMs were then determined by the CCK-8 kit. Specifically, the BMMs were seeded into 96-well plates in triplicate at the density of 8 × 10^3 cells/well in presence of 100μL complete α-MEM for 24 h. After that, the cells were treated with increasing concentration of DZNep (control, 3.125, 6.25, 12.5, 25, 50, 100, 200 nM) for 24, 48, and 96 h. After treatment, 100μL medium contained 10% CCK-8 buffer was added to the wells and incubated in the dark at 37 °C for 2 h. The absorbance was then detected at 450 nm wavelength (650 nm reference) on a microplate reader.

[2] = system: BMMs; experiment: Bone resorption assay on hydroxyapatite-coated Osteo Assay plates; conditions: 25 nM, compared with the control group
Procedure: To explore the effect of DZNep on the function of osteoclast, BMMs on complete α-MEM were seeded at the density of 1 × 10^4 cells/well, in triplicate, on the Osteo Assay Surface plates (Corning, NY, USA). After thirty-six hours, the culture medium was replaced by complete α-MEM, with RANKL (50 ng/mL), and various doses of DZNep (control, 6.25, 12.5, and 25 nM). For EZH2 gene knockdown studies, the cells were transfected with virus constructed of different EZH2 short hairpin RNA (shRNA) and negative control shRNA by mixed with polybrene (final concentration of 10ug/ml) for 48 h. The transfection mixture was then replaced by complete α-MEM added with puromycin for 24 h, and the survived BMMs were seeded into a 96-well plate, in triplicate, at a density of 1 × 10^4 cells/well. The medium needs to be constantly replaced until the osteoclast had matured for 1 day. For Foxc1 inhibition experiment, the cells were separately transfected with negative control siRNA, negative control siRNA with DZNep, and Foxc1 small interfering RNA (siRNA) with DZNep and by mixed with transfection reagent and osteoclast culture medium. The transfection mixture was then replaced every 2 days until the osteoclast had been observed for 2 days. […] The total area of resorption was photographed and then calculated by ImageJ software (NIH, Bethesda, MD, USA).

[3] = system: BMMs; experiment: Immunofluorescence of podosome actin belt; conditions: 25 nM, vs control
Procedure: BMMs in complete α-MEM with or without 25 nM DZNep were seeded in 6-well plates at a density of 1 × 10^5 cells/well and cultured for 6 days. Once the matured osteoclast could be observed, the plate was washed by PBS and then fixed with 4% paraformaldehyde. The 10 min 0.2% Triton X-PBS was then performed for permeabilizing. After three times washing by PBS, FITC-labeled phalloidin was added for 1 h in darkness to bounds with the cells F-actin ring. The nuclei were stained at RT for 5 min without light by 4′, 6-diamidino-2-phenylindole (DAPI). After the final PBS wash, the perimeter of the actin ring could be observed by the fluorescence microscope (Leica) and analyzed using ImageJ software (NIH, Bethesda, MD, USA).

[4] = system: osteoclast-related genes in BMMs; experiment: qPCR of osteoclast-related genes in BMMs
Procedure: (§1) BMMs were cultured in 6-well plates at the density of 2 × 10^5 cells/well in α-MEM supplemented with M-CSF (30 ng/ml), RANKL (50 ng/ml). The cells were then treated with or without 25 nM DZNep for 0, 1, 3, 5 days, or with various concentrations of DZNEP (0, 6.25, 25 nM) for 5 days, or with negative control siRNA, negative control siRNA with DZNep, and Foxc1 small interfering RNA (siRNA) with DZNep for 5 days. Once the culture completed, the Axygen RNA Miniprep Kit (Axygen, Union City, CA, USA) was used to extract the total RNA. BMSC were seeded in a 6-well plate at a number of 4 × 10^5 cells/well and treated with 0, 25, 50, 100 nM of DZNep combined with osteoblast-cultured medium for 24 h, or with or without 100 nM DZNep combined with osteoblast-cultured medium for 0 and 7 days, or with negative control siRNA, negative control siRNA with DZNep, and Wnt4 small interfering RNA (siRNA) with DZNep combined with osteoblast-cultured medium for 7 days. Once the culture completed, the Axygen RNA Miniprep Kit (Axygen, Union City, CA, USA) was used to extract the total RNA. After reverse transcription to obtain cDNA from the RNA template by using the Prime Script RT reagent Kit was finished. The real-time PCR assay was subsequently performed by using the SYBR® Premix Ex Taq™ II on an ABI 7500 Sequencing Detection System (Applied Biosystems, Foster City, CA). Specifically, total volume of 10 μl liquid consisted by 5 μl of SYBR® Premix Ex Taq™ II, 1 μl of diluted cDNA, 0.4 μl of mixed forward and reverse primer, and 3.6 μl of ddH2O was added into each hole of 384 PCR plate. Conditions of the 40 cycles were: 95 °C for 5 s and 60 °C for 30 s. The melting curves and reverse transcription PCR (RT-PCR) were the methods to detect the specificity of amplification product. Each target’s quantity, run in triplicate, was normalized to Actin Beta (Actb). […]

[5] = system: primary BMSC; experiment: CCK-8 cytotoxicity on BMSC; conditions: 100 nM; 12, 48, and 96 h
[6] = system: Wnt signaling pathway-related and osteoblast-specified genes in BMSC; experiment: qPCR of Wnt and osteoblast genes in BMSC
Procedure: as §1

Structure (SMILES): Nc1nccc2c1ncn2C1C=C(CO)C(O)C1O (centres unmarked) [DZNep, 3-Deazaneplanocin]
- cytotoxicity on primary BMMs ([1]; 25 nM, CCK-8 at 24, 48, and 96 h): no cytotoxicity was found
- IC50 ([1]; Mus musculus, at 96 h, CCK-8, read-out: inhibitory concentration (IC50) against BMMs): 326 nM
- bone resorption area [2]: more than 30%
- podosome actin belt formation of osteoclast [3]: promoted the podosome actin belt formation
- expression of Trap, Ctsk, Atp6v0d2 (qPCR) ([4]; 25 nM, 0, 1, 3, 5 days): significantly enhanced in a time-dependent manner
- mRNA expression of Foxc1 in BMMs ([4]; RANKL and DZNep treatment for 5 days): upregulated
- expression of Calcr, c-FOS, Nfatc1, Trap, Ctsk, Atp6v0d2 (qPCR) ([4]; indicated DZNep concentrations, 5 days): upregulated in a dose-dependent manner
- cytotoxicity on primary BMSC [5]: no cytotoxicity was found
- expression of Wnt4, Wnt1, Wnt6, Wnt10a (qPCR) ([6]; 0, 25, 50, 100 nM, 24 h): increased in a concentration-dependent manner
- expression of Wnt genes after osteoblast-cultured medium for 7 days ([6]; 100 nM, 7 days): obviously upregulated
- expression of osteoblast-specified genes Runx2, Ocn, Opn, Col1a1 ([6]; BMSC, 100 nM 0 and 7 days, 0-100 nM 24 h): enhanced in a time-dependent and dose-dependent manner
